Source: patent US9850283B2, “Macrocyclic inhibitors of the PD-1/PD-L1 and CD80(B7-1)/PD-L1 protein/protein interactions” (BRISTOL-MYERS SQUIBB COMPANY, priority 2013, dated 2017)
Read-outs that look alike come from different tables or passages of the source. Positions of bridges follow the written chain, without caps; N, C: chain ends. Non-standard residues stand in square brackets, D forms with d. Residues, ends and D or L forms follow the SMILES beside them. ξ: configuration not given here. *: point of attachment. Phe(4-F) = N[C@@H](Cc1ccc(F)cc1)C(=O)O; Phe(2-Me) = Cc1ccccc1C[C@H](N)C(=O)O; Bta = N[C@@H](Cc1csc2ccccc12)C(=O)O; Hyp = O=C(O)[C@@H]1C[C@@H](O)CN1; NMeF = CN[C@@H](Cc1ccccc1)C(=O)O; 3Pal = N[C@@H](Cc1cccnc1)C(=O)O; NMeNle = CCCC[C@H](NC)C(=O)O; NMeM = CN[C@@H](CCSC)C(=O)O; NMeA = CN[C@@H](C)C(=O)O; Dab = NCC[C@H](N)C(=O)O; Dap = NC[C@H](N)C(=O)O; OtBu = CC(C)(C)O*; ξC = NC(CS)C(=O)O; Sar = CNCC(=O)O

Columns and labels:
[1] = target: T1, LK35.2-hPD-L1 cells / PE-labeled PD-1-Ig (Homo sapiens, UniProt Q9NZQ7); assay: LK35.2-hPD-L1 cell binding high-content screening assay; format: cell-based
T1 construct: expressed in transfected cells; host or cells: LK35.2 mouse B cell line
Method in brief: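 Mouse LK35.2 B cells stably over-expressing human PD-L1, cultured overnight, treated with compound plus PE-labeled human PD-1-Ig (1 nM final) in RPMI/10% FCS for 1 h at 37 °C. After washing, bound fluorescence quantified by high-content imaging.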

[2] = target: T2, Human PD-L1/PD-1 (Homo sapiens, UniProt Q9NZQ7); assay: HTRF PD-1-Ig/PD-L1-His binding assay (human PD-L1)
T2 construct: made in house; host or cells: HEK293T
Method in brief: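 Soluble PD-1-Ig binding to PD-L1-His measured by HTRF in dPBS with 0.1% BSA and 0.05% Tween-20. Detection used europium cryptate anti-Ig antibody (1 nM final) and APC anti-His antibody (20 nM final) added on top of the binding reaction.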

[3] = cell binding assay, cell line not given, cluster symbol, read-out: CBA IC50 cluster
[4] = cluster symbol, read-out: HTRF IC50 cluster
[5] = cluster symbol, cell line of CBA not given (LK35.2-hPD-L1 or 293T-hPD-L1), read-out: CBA IC50 cluster

T1 sequence (Q9NZQ7 19-290): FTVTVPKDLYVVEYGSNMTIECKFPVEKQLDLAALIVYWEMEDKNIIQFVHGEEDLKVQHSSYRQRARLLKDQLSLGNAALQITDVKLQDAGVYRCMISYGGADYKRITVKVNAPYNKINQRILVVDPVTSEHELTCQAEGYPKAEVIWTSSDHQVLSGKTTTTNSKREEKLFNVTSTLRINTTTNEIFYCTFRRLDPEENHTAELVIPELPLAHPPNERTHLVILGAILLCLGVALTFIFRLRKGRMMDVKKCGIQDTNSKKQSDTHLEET
T2 sequence (Q9NZQ7 with tags, fused parts or gaps): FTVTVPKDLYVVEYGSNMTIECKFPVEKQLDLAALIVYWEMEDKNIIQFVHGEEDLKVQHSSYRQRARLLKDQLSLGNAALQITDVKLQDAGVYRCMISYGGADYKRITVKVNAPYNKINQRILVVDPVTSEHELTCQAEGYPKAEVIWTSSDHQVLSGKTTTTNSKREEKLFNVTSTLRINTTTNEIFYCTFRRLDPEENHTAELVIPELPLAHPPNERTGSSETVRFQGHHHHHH

Row | Structure (SMILES) | IC50 [1, 3] | IC50 [2, 4] | IC50 ([1]; cell binding assay, cell line not given, value given instead of cluster, read-out: CBA IC50 value) | IC50 ([2]; value given instead of cluster, read-out: HTRF IC50 value) | IC50 [1, 5]
1 | CCCC[C@H]1C(=O)N(C)[C@@H](CCCC)C(=O)N[C@@H](CCCNC(=N)N)C(=O)N[C@H](C(=O)NCC(N)=O)CSCC(=O)N[C@@H](Cc2ccc(O)cc2)C(=O)N(C)[C@@H](C)C(=O)N[C@@H](CC(=O)O)C(=O)N2CCC[C@H]2C(=O)N[C@@H](Cc2c[nH]cn2)C(=O)N[C@@H](CCCCN)C(=O)N2C[C@H](O)C[C@H]2C(=O)N[C@@H](Cc2c[nH]c3ccccc23)C(=O)N[C@@H](CCCCN)C(=O)N[C@@H](Cc2c[nH]c3ccccc23)C(=O)N1C [Example 5110] ({CH2CO}-Y[NMeA]DPHK[Hyp]WKW[NMeNle][NMeNle]RCG-NH2; thioether N-14) | 0.158 to 4.71 nM | 0.385 to 6.74 nM | – | – | –
2 | CCCC[C@H]1C(=O)N(C)CC(=O)N[C@@H](CC(=O)OC(C)(C)C)C(=O)N[C@@H](C(C)C)C(=O)N(C)[C@@H](Cc2ccccc2)C(=O)N[C@@H](Cc2ccc(O)cc2)C(=O)N(C)CC(=O)N[C@@H](Cc2c[nH]c3ccccc23)C(=O)N[C@@H](Cc2ccc(O)cc2)C(=O)N[C@@H](CC(C)C)C(=O)N[C@H](C(=O)NCC(N)=O)CSCC(=O)N[C@@H](Cc2ccccc2)C(=O)N[C@@H](Cc2cccnc2)C(=O)N1C [Example 3604] ({CH2CO}-F[3Pal][NMeNle][Sar]D(OtBu)V[NMeF]Y[Sar]WYLCG-NH2; thioether N-13) | > 74.3 nM | > 30.5 nM | – | – | –
3 | CCCC[C@H]1C(=O)N(C)[C@@H](CCCC)C(=O)N[C@@H](CN)C(=O)N[C@H](C(=O)NCC(N)=O)CSCC(=O)N[C@@H](Cc2ccc(O)cc2)C(=O)N(C)[C@@H](C)C(=O)N[C@@H](CC(N)=O)C(=O)N2CCC[C@H]2C(=O)N[C@@H](CN)C(=O)N[C@@H](CCC(=O)O)C(=O)N2C[C@H](O)C[C@H]2C(=O)N[C@@H](Cc2c[nH]c3ccccc23)C(=O)N[C@@H](CCN)C(=O)N[C@@H](Cc2c[nH]c3ccccc23)C(=O)N1C [Example 5060] ({CH2CO}-Y[NMeA]NP[Dap]E[Hyp]W[Dab]W[NMeNle][NMeNle][Dap]CG-NH2; thioether N-14) | 4.78 to 72.9 nM | 0.385 to 6.74 nM | – | – | –
4 | CCCC[C@H]1C(=O)N(C)[C@@H](CCCC)C(=O)N[C@@H](CCCNC(=N)N)C(=O)N[C@H](C(=O)NCC(N)=O)CSCC(=O)N[C@@H](Cc2ccccc2)C(=O)N(C)[C@@H](C)C(=O)N[C@@H](CC(N)=O)C(=O)N2CCC[C@H]2C(=O)N[C@@H](Cc2cnc[nH]2)C(=O)N[C@@H](Cc2c[nH]c3ccccc23)C(=O)N(C)CC(=O)N[C@@H](Cc2c[nH]c3ccccc23)C(=O)N[C@@H](CO)C(=O)N[C@@H](Cc2c[nH]c3ccccc23)C(=O)N1C [Example 6009] ({CH2CO}-F[NMeA]NPHW[Sar]WSW[NMeNle][NMeNle]RCG-NH2; thioether N-14) | – | – | 158 nM | 69.7 nM | –
5 | CCCC[C@H]1C(=O)N(C)[C@@H](CCCC)C(=O)N[C@@H](CCCNC(=N)N)C(=O)NC(C(=O)N[C@@H](CO)C(N)=O)CSCC(=O)N[C@@H](Cc2ccc(O)cc2)C(=O)N(C)[C@@H](C)C(=O)N[C@@H](CC(N)=O)C(=O)N2CCC[C@H]2C(=O)N[C@@H](CO)C(=O)N[C@@H](CC(C)C)C(=O)N2C[C@H](O)C[C@H]2C(=O)N[C@@H](Cc2c[nH]c3ccccc23)C(=O)N[C@@H](CO)C(=O)N[C@@H](Cc2csc3ccccc23)C(=O)N1C (stereo partly shown) [Example 9075] ({CH2CO}-Y[NMeA]NPSL[Hyp]WS[Bta][NMeNle][NMeNle]R[ξC]S-NH2; thioether N-14) | 0.158 to 4.71 nM | 0.385 to 6.74 nM | – | – | –
6 | CCCC[C@H]1C(=O)N(C)CC(=O)N[C@@H](CC(=O)O)C(=O)N[C@@H](C(C)C)C(=O)N(C)[C@@H](Cc2ccccc2)C(=O)N[C@@H](Cc2ccc(O)cc2)C(=O)N(C)CC(=O)N[C@@H](Cc2c[nH]c3ccccc23)C(=O)N[C@@H](Cc2ccc(O)cc2)C(=O)N[C@@H](CC(C)C)C(=O)N[C@H](C(=O)NCC(N)=O)CSCC(=O)N[C@@H](Cc2ccccc2)C(=O)N[C@@H](Cc2cccnc2)C(=O)N1C [Example 3602] ({CH2CO}-F[3Pal][NMeNle][Sar]DV[NMeF]Y[Sar]WYLCG-NH2; thioether N-13) | > 74.3 nM | 6.76 to 30.3 nM | – | – | –
7 | CCCC[C@H]1C(=O)N(C)[C@@H](CCCC)C(=O)N[C@@H](CCCNC(=N)N)C(=O)N[C@H](C(=O)NCC(N)=O)CSCC(=O)N[C@@H](Cc2ccccc2C)C(=O)N(C)[C@@H](C)C(=O)N[C@@H](CC(N)=O)C(=O)N2CCC[C@H]2C(=O)N[C@@H](Cc2cnc[nH]2)C(=O)N[C@@H](CC(C)C)C(=O)N(C)CC(=O)N[C@@H](Cc2c[nH]c3ccccc23)C(=O)N[C@@H](CO)C(=O)N[C@@H](Cc2c[nH]c3ccccc23)C(=O)N1C [Example 1106] ({CH2CO}-[Phe(2-Me)][NMeA]NPHL[Sar]WSW[NMeNle][NMeNle]RCG-NH2; thioether N-14) | – | 6.76 to 30.3 nM | – | – | 4.78 to 72.9 nM
8 | CCCC[C@H]1C(=O)N(C)CC(=O)N[C@@H](CC(=O)O)C(=O)N[C@@H](C(C)C)C(=O)N(C)[C@@H](Cc2ccccc2)C(=O)N[C@@H](Cc2ccc(O)cc2)C(=O)N(C)CC(=O)N[C@@H](Cc2c[nH]c3ccccc23)C(=O)N[C@@H](Cc2ccc(O)cc2)C(=O)N[C@@H](CC(C)C)C(=O)N[C@H](C(=O)NCC(N)=O)CSCC(=O)N[C@@H](Cc2c[nH]c3ccccc23)C(=O)N(C)[C@@H](Cc2ccccc2)C(=O)N1C [Example 3090] (HELM PEPTIDE1{[O=C(C[*:3])[*:2]].W.[meF].[CCCC[C@@H](C(=O)[*:2])N(C)[*:1]].[Sar].D.V.[meF].Y.[Sar].W.Y.L.C.G.[am]}$PEPTIDE1,PEPTIDE1,1:R3-14:R3$$$V2.0) | – | > 30.5 nM | – | – | > 74.3 nM
9 | CCCC[C@H]1C(=O)N(C)[C@@H](CCCC)C(=O)N[C@@H](C)C(=O)N[C@H](C(=O)NCC(N)=O)CSCC(=O)N[C@@H](Cc2ccc(O)cc2)C(=O)N(C)[C@@H](C)C(=O)N[C@@H](CC(N)=O)C(=O)N2CCC[C@H]2C(=O)N[C@@H](Cc2cnc[nH]2)C(=O)N[C@@H](CC(C)C)C(=O)N2CCC[C@H]2C(=O)N[C@@H](Cc2c[nH]c3ccccc23)C(=O)N[C@@H](Cc2ccc(O)cc2)C(=O)N[C@@H](Cc2csc3ccccc23)C(=O)N1C [Example 1050] ({CH2CO}-Y[NMeA]NPHLPWY[Bta][NMeNle][NMeNle]ACG-NH2; thioether N-14) | – | > 30.5 nM | – | – | 4.78 to 72.9 nM
10 | CCCC[C@H]1C(=O)N(C)[C@@H](CCCC)C(=O)N[C@@H](CC(C)C)C(=O)N[C@H](C(=O)NCC(N)=O)CSCC(=O)N[C@@H](Cc2ccc(O)cc2)C(=O)N(C)[C@@H](C)C(=O)N[C@@H](CC(=O)O)C(=O)N2CCC[C@H]2C(=O)N[C@@H](Cc2cnc[nH]2)C(=O)N[C@@H](CCC(=O)O)C(=O)N2C[C@H](O)C[C@H]2C(=O)N[C@@H](Cc2c[nH]c3ccccc23)C(=O)N[C@@H](CCN)C(=O)N[C@@H](Cc2c[nH]c3ccccc23)C(=O)N1C [Example 5066] ({CH2CO}-Y[NMeA]DPHE[Hyp]W[Dab]W[NMeNle][NMeNle]LCG-NH2; thioether N-14) | 0.158 to 4.71 nM | 0.385 to 6.74 nM | – | – | –
11 | CCCC[C@H]1C(=O)N(C)[C@@H](CCCC)C(=O)N[C@@H](CO)C(=O)N[C@H](C(=O)NCC(N)=O)CSCC(=O)N[C@@H](Cc2ccc(O)cc2)C(=O)N(C)[C@@H](C)C(=O)N[C@@H](CC(N)=O)C(=O)N2CCC[C@H]2C(=O)N[C@@H](CO)C(=O)N[C@@H](CC(C)C)C(=O)N2C[C@H](O)C[C@H]2C(=O)N[C@@H](Cc2c[nH]c3ccccc23)C(=O)N[C@@H](CO)C(=O)N[C@@H](Cc2c[nH]c3ccccc23)C(=O)N1C [Example 5118] ({CH2CO}-Y[NMeA]NPSL[Hyp]WSW[NMeNle][NMeNle]SCG-NH2; thioether N-14) | 0.158 to 4.71 nM | 0.385 to 6.74 nM | – | – | –
12 | CCCC[C@H]1C(=O)N(C)CC(=O)N[C@@H](CC(=O)O)C(=O)N[C@@H](C(C)C)C(=O)N(C)[C@@H](Cc2ccccc2)C(=O)N[C@@H](Cc2ccc(F)cc2)C(=O)N(C)CC(=O)N[C@@H](Cc2c[nH]c3ccccc23)C(=O)N[C@@H](Cc2ccc(O)cc2)C(=O)N[C@@H](CC(C)C)C(=O)N[C@H](C(=O)NCC(N)=O)CSCC(=O)N[C@@H](Cc2ccccc2)C(=O)N(C)[C@@H](Cc2ccccc2)C(=O)N1C [Example 3077] ({CH2CO}-F[NMeF][NMeNle][Sar]DV[NMeF][Phe(4-F)][Sar]WYLCG-NH2; thioether N-13) | – | > 30.5 nM | – | – | > 74.3 nM
13 | CCCC[C@H]1C(=O)N(C)[C@@H](CCSC)C(=O)N[C@@H](C)C(=O)NC(C(=O)NCC(N)=O)CSCC(=O)N[C@@H](Cc2ccc(O)cc2)C(=O)N(C)[C@@H](C)C(=O)N[C@@H](CC(N)=O)C(=O)N2CCC[C@H]2C(=O)N[C@@H](CN)C(=O)N[C@@H](CC(C)C)C(=O)N2CCC[C@H]2C(=O)N[C@@H](Cc2c[nH]c3ccccc23)C(=O)N[C@@H](CO)C(=O)N[C@@H](Cc2c[nH]c3ccccc23)C(=O)N1C (stereo partly shown) [Example 9085] ({CH2CO}-Y[NMeA]NP[Dap]LPWSW[NMeNle][NMeM]A[ξC]G-NH2; thioether N-14) | 4.78 to 72.9 nM | 0.385 to 6.74 nM | – | – | –
14 | CCCC[C@H]1C(=O)N(C)[C@@H](CCCC)C(=O)N[C@@H](C)C(=O)N[C@H](C(=O)NCC(N)=O)CSCC(=O)N[C@@H](Cc2ccc(O)cc2)C(=O)N(C)[C@@H](C)C(=O)N[C@@H](CC(N)=O)C(=O)N2CCC[C@H]2C(=O)N[C@@H](Cc2cnc[nH]2)C(=O)N[C@@H](CCC(N)=O)C(=O)N2C[C@H](O)C[C@H]2C(=O)N[C@@H](Cc2c[nH]c3ccccc23)C(=O)N[C@@H](CCN)C(=O)N[C@@H](Cc2c[nH]c3ccccc23)C(=O)N1C [Example 5038] ({CH2CO}-Y[NMeA]NPHQ[Hyp]W[Dab]W[NMeNle][NMeNle]ACG-NH2; thioether N-14) | 0.158 to 4.71 nM | 6.76 to 30.3 nM | – | – | –
